Test results published in patent US6608086B2, “Dihydropyridines and new uses thereof” (Synaptic Pharmaceutical Corporation, priority 1993, dated 2003).
Where a name gives a salt, the structure may show the parent alone. Read-outs that look alike come from different tables or passages of the source.

How the values were obtained:
[1] = target: T1, α1B Human Adrenergic Receptor (Homo sapiens, UniProt P35368); experiment: Radioligand binding, [3H]prazosin, cloned human α1B adrenergic receptor; details: for Ki: read-out: pKi alpha-1 1b (converted)
T1 construct: The entire coding region of α1B (1563 bp); expressed in transfected cells
T1 sequence (P35368 1-520): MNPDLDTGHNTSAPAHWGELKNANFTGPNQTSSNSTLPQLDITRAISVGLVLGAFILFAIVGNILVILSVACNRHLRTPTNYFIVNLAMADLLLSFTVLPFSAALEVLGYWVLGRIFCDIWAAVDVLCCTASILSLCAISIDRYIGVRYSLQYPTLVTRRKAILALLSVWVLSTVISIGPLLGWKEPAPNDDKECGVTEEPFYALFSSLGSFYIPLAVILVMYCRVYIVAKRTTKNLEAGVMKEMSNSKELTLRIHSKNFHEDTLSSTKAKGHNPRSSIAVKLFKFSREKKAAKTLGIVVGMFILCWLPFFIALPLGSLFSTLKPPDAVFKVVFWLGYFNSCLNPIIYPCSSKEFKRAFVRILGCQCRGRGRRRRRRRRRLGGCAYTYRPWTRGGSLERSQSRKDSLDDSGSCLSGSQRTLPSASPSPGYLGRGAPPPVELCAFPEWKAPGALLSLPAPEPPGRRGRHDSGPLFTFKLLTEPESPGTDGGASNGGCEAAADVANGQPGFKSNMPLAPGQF
Outline: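 [3H]prazosin (0.5 nM) binding was run for 20 min at 37° C in pH 7.5 Tris/MgCl2/ascorbate buffer on membranes of LM(tk−) cells stably expressing the cloned receptor. Filtration through GF/B ended the reaction; 10 μM phentolamine gave nonspecific binding.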

α2B receptor = target: T2, α2B receptor (Homo sapiens, UniProt P18089); experiment: Competition binding, [3H]rauwolscine, human α2B receptor; details: for Ki: read-out: pKi alpha-2 2b (converted)
T2 construct: host or cells: LM(tk-) cells, line L-NGC-α2B
T2 sequence (P18089 1-450): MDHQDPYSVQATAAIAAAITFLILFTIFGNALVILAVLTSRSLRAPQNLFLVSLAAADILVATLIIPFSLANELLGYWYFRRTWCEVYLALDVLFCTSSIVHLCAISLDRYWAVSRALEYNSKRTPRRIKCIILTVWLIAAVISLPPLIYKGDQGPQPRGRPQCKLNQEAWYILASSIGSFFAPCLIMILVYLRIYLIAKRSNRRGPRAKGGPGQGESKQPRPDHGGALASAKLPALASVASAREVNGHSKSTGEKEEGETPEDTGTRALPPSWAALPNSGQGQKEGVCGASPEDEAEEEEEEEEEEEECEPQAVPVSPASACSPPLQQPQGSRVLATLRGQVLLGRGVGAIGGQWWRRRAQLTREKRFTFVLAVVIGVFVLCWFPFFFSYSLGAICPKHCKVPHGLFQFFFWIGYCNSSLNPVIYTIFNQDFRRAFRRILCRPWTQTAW
Outline: (§1)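 Filter-bound [3H]rauwolscine (0.5 nM) was measured after equilibrium competition with test antagonists on lysates of LM(tk−) cells stably transfected with each human α2 subtype. Buffer: 25 mM glycylglycine, pH 7.6 at room temperature; 10 μM phentolamine gave nonspecific binding.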

α2A receptor = target: T3, α2A receptor (Homo sapiens, UniProt P08913); experiment: Competition binding, [3H]rauwolscine, human α2A receptor; details: for Ki: read-out: pKi alpha-2 2a (converted)
T3 construct: host or cells: LM(tk-) cells, line L-α2A
T3 sequence (P08913 1-465): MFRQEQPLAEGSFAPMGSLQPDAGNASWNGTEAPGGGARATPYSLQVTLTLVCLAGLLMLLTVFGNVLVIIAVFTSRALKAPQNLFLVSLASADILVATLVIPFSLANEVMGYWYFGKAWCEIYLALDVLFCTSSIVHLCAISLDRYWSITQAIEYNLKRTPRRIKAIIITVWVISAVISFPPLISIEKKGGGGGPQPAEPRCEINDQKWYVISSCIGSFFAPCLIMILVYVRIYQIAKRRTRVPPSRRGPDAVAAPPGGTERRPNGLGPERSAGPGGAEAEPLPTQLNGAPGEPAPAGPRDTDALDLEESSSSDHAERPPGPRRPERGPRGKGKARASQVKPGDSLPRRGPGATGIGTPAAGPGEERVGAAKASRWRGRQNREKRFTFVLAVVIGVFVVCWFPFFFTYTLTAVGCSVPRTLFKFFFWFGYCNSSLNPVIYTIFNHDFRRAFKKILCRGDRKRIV
Outline: as §1

α2C receptor = target: T4, α2C receptor (Homo sapiens, UniProt P18825); experiment: Competition binding, [3H]rauwolscine, human α2C receptor; details: for Ki: read-out: pKi alpha-2 2c (converted)
T4 construct: host or cells: LM(tk-) cells, line L-α2C
T4 sequence (P18825 1-462): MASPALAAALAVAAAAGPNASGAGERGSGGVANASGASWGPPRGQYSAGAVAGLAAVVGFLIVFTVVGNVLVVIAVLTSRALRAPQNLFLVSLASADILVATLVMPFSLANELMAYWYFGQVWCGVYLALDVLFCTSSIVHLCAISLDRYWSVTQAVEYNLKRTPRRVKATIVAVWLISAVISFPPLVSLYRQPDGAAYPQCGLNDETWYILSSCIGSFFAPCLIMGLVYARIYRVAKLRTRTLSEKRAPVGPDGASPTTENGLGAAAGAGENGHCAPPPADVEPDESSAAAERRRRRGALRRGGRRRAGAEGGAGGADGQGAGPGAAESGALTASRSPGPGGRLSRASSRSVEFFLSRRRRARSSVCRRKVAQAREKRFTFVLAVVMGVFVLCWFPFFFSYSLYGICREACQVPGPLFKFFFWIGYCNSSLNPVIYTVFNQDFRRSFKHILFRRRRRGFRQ
Outline: as §1

[2] = cloned human receptor in LM(tk-) cell membranes, SEM and n in lines below
[3] = [3H]rauwolscine, LM(tk-) cell line L-NGC-α2B, SEM and n in lines below
[4] = [3H]rauwolscine, LM(tk-) cell line L-α2A, SEM and n in lines below
[5] = [3H]rauwolscine, LM(tk-) cell line L-α2C, SEM and n in lines below

Row | Compound | Ki [1, 2] [nM] | Ki (α2B receptor; [3]) [nM] | Ki (α2A receptor; [4]) [nM] | Ki (α2C receptor; [5]) [nM] | pKi alpha-1 1b [1, 2] | also measured
1 | 5-Acetyl-1,4-dihydro-2,6-dimethyl-4-(4-nitrophenyl)-3-[3-(4,4-diphenylpiperidin-1-yl)propoxy]carbonylpyridine hydrochloride hemihydrate [Example 49] |  |  |  |  | 6.72 | pKi alpha-2 2b (α2B receptor): 6.42; pKi alpha-2 2a (α2A receptor): 6.63; pKi alpha-2 2c (α2C receptor): 6.86
2 | COC(=O)C1=C(C)NC(C)=C(C(=O)NCCCN2CCC(c3ccccc3)CC2)C1c1ccc([N+](=O)[O-])cc1 (racemic) [(±)-45, (±)-1,4-Dihydro-3-methoxycarbonyl-2,6-dimethyl-4-(4-nitrophenyl)-5-{N-[3-(4-phenylpiperidin-1-yl)propyl]}carboxamidopyridine hydrochloride hemihydrate] | 13.5 | 214 | 282 | 81.3 |  | 
3 | CNC(=O)C1=C(C)NC(C)=C(C(=O)NCCCN2CCC(c3ccccc3)(c3ccccc3)CC2)C1c1ccc([N+](=O)[O-])cc1 (racemic) [(±)-119, 1,4-Dihydro-2,6-dimethyl-5-(N-Methyl) carboxamido-4-(4-nitrophenyl)-3-{N-[3-(4,4-diphenylpiperidin-1-yl)propyl]}carboxamidopyridine] |  |  |  |  |  | pKi alpha-1 1b ([1]; cloned human α1B receptor, LM(tk−) cell membranes): 6.38; pKi alpha-2 2b (α2B receptor): 6.04; pKi alpha-2 2a (α2A receptor): 6.4; pKi alpha-2 2c (α2C receptor): 6.49
4 | COC(=O)C1=C(C)NC(C)=C(C(=O)NCCCN2CCC(c3ccccc3)CC2)C1c1ccc([N+](=O)[O-])cc1 (single isomer, unassigned; (+)) [(+)-45, 1,4-Dihydro-3-methoxycarbonyl-2,6-dimethyl-4-(4-nitrophenyl)-5-{N-[3-(4-phenylpiperidin-1-yl)propyl]}carboxamidopyridine hydrochloride hemihydrate] | 57.5 | 91.2 | 240 | 22.4 |  | 
5 | COC(=O)C1=C(C)NC(C)=C(C(=O)NCCCN2CCC(c3ccccc3)CC2)C1c1ccc([N+](=O)[O-])cc1 (single isomer, unassigned; (-)) [(−)-45, 1,4-Dihydro-3-methoxycarbonyl-2,6-dimethyl-4-(4-nitrophenyl)-5-{N-[3-(4-phenylpiperidin-1-yl)propyl]}carboxamidopyridine hydrochloride hemihydrate] | 9.12 | 229 | 339 | 13.8 |  | 
6 | CNC(=O)C1=C(C)NC(C)=C(C(=O)NCCCN2CCC(c3ccccc3)(c3ccccc3)CC2)C1c1ccc([N+](=O)[O-])cc1 (stereo not drawn) [Example 38, 1,4-Dihydro-2,6-dimethyl-5-(N-methyl)carboxamido-4-(4-nitrophenyl)-3-{N-[3-(4,4-diphenylpiperidin-1-yl)propyl]}carboxamidopyridine] |  |  |  |  | 6.38 | pKi alpha-2 2b (α2B receptor): 6.04; pKi alpha-2 2a (α2A receptor): 6.40; pKi alpha-2 2c (α2C receptor): 6.49
7 | CC1=C(C(=O)NCCCN2CCC(c3ccccc3)(c3ccccc3)CC2)C(c2ccc([N+](=O)[O-])cc2)C(C(=O)N(C)C)=C(C)N1 (stereo not drawn) [Example 39, 1,4-Dihydro-2,6-dimethyl-3-(N,N-dimethyl) carboxamido-4-(4-nitrophenyl)-5-{N-[3-(4,4-diphenylpiperidin-1-yl)propyl]}carboxamidopyridine] |  |  |  |  | 5.93 | pKi alpha-2 2b (α2B receptor; [3]): 5.74; pKi alpha-2 2c (α2C receptor; [5]): 6.09
8 | CC(=O)C1=C(C)NC(C)=C(C(=O)NCCCN2CCC(c3ccccc3)(c3ccccc3)CC2)C1c1ccc([N+](=O)[O-])cc1 (stereo not drawn) [Example 47, 5-Acetyl-1,4-dihydro-2,6-dimethyl-4-(4-nitrophenyl)-3-{N-[3-(4,4-diphenylpiperidin-1-yl)propyl]}carboxamidopyridine] |  |  |  |  | 6.58 | pKi alpha-2 2b (α2B receptor; [3]): 6.36; pKi alpha-2 2a (α2A receptor; [4]): 6.22; pKi alpha-2 2c (α2C receptor; [5]): 6.43

Second part, led by results:

Row | Ki [1, 2] [nM] | Ki (α2B receptor; [3]) [nM] | Ki (α2A receptor; [4]) [nM] | Ki (α2C receptor; [5]) [nM] | Compound | pKi alpha-1 1b [1, 2] | also measured
9 | 64.6 | 22.4 | 102 | 51.3 | COC(=O)C1=C(C)NC(C)=C(C(=O)NCCCCN2CCC(c3ccccc3)CC2)C1c1ccc([N+](=O)[O-])cc1 (stereo not drawn) [Example 3, 1,4-Dihydro-3-methoxycarbonyl-2,6-dimethyl-4-(4-nitrophenyl)-5-{N-[4-(4-phenylpiperidin-1-yl)butyl]}carbozamidopyridine hydrochloride hydrate] |  | 
10 | 41.7 | 141 | 347 | 26.9 | COC(=O)C1=C(C)NC(C)=C(C(=O)NCCCN2CCC(c3ccccc3)CC2)C1c1ccc(Cl)c([N+](=O)[O-])c1 (stereo not drawn) [Example 17, 4-(4-Chloro-3-nitrophenyl)-1,4-dihydro-3-methoxycarbonyl-2,6-dimethyl-5-(N-(3-(4-phenylpiperidin-1-yl)propyl)carboxamido)pyridine] |  | 
11 | 53.7 | 234 | 117 | 49 | COC(=O)C1=C(C)NC(C)=C(C(=O)NCCCN2CCC(c3ccccc3)CC2)C1c1cccc([N+](=O)[O-])c1 (stereo not drawn) [Example 30, 1,4-Dihydro-3-methoxycarbonyl-2,6-dimethyl-4-(3-nitrophenyl)-5-(N-(3-(4-phenylpiperidin-1-yl)propyl)carboxamido)pyridine] |  | 
12 | 20.4 | 138 | 158 | 52.5 | COC(=O)C1=C(C)NC(C)=C(C(=O)NCCCN2CCC(c3ccccc3)CC2)C1c1ccc(C)cc1 (stereo not drawn) [Example 31, 1,4-Dihydro-3-methoxycarbonyl-2,6-dimethyl-4-(4-methylphenyl)-5-(N-(3-(4-phenylpiperidin-1-yl)propyl)carboxamido)pyridine] |  | 
13 | 2.63 | 813 | 17.4 | 417 | COC(=O)C1=C(C)NC(C)=C(C(=O)OCCCN2CCC(c3ccccc3)CC2)C1c1ccc([N+](=O)[O-])cc1 (stereo not drawn) [Example 48, 1,4-Dihydro-5-methazycarbonyl-2,6-dimethyl-4-(4-nitrophenyl)-3-[3-(4-phenylpiperidin-1-yl)propoxy]}carbonylpyridine hydrochloride hydrate] |  | 
